Calls of active or inactive are those of the source.
Experiments:
[1] = target: Cytochrome P450 3A4 (Homo sapiens, UniProt P08684);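 further: CYP3A4 tested as one member of a cytochrome P450 panel screen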
[2] = target: T1, Heat shock factor protein 1 (Mus musculus, UniProt P38532); experiment: enhancement of HSF1-driven luciferase signal – cell-based, NIH3T3, luminescence, dose retest, confirmation (AID 435004); format: functional;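 further: stress induced by proteasome inhibitor MG132 added 30 min after compound; luciferase reporter driven by HSF1 response element in NIH3T3 cells; actives raise luminescence as potentiators of the MG132 stress response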
T1 sequence (P38532 whole entry): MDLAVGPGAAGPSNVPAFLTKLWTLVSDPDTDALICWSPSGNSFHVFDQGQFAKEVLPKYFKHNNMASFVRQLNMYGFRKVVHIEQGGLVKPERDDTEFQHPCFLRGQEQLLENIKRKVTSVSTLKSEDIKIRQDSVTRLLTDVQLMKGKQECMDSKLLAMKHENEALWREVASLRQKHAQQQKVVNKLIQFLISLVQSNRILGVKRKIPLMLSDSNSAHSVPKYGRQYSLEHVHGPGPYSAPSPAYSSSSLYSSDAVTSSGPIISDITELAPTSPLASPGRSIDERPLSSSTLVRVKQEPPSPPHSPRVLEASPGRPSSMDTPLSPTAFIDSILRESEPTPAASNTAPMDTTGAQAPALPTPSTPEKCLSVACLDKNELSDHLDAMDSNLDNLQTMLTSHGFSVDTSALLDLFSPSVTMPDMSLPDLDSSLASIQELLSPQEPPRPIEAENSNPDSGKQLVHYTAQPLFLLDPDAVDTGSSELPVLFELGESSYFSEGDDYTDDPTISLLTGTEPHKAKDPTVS

[3] = target: Cytochrome P450 2C9 (Homo sapiens, UniProt P11712)
Chain of Cytochrome P450 2C9 (P11712 whole entry): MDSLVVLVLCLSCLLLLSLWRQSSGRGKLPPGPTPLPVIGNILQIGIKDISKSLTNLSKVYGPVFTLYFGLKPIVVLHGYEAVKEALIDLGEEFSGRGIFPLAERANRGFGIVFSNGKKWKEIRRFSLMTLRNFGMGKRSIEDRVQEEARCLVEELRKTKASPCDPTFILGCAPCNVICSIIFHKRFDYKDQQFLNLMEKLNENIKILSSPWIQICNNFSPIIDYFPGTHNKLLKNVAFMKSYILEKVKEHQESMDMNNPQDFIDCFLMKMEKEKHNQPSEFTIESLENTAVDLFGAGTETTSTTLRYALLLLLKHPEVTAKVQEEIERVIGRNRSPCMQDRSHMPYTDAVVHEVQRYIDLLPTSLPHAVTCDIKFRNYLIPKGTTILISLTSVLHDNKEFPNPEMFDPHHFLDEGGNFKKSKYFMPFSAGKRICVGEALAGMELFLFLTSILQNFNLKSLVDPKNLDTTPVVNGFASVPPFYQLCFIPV

[4] = target: T2, Cytochrome P450 1A2 (Homo sapiens, UniProt P05177);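 further: PubChem cytochrome P450 panel assay, CYP1A2 panel member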
T2 sequence (P05177 whole entry): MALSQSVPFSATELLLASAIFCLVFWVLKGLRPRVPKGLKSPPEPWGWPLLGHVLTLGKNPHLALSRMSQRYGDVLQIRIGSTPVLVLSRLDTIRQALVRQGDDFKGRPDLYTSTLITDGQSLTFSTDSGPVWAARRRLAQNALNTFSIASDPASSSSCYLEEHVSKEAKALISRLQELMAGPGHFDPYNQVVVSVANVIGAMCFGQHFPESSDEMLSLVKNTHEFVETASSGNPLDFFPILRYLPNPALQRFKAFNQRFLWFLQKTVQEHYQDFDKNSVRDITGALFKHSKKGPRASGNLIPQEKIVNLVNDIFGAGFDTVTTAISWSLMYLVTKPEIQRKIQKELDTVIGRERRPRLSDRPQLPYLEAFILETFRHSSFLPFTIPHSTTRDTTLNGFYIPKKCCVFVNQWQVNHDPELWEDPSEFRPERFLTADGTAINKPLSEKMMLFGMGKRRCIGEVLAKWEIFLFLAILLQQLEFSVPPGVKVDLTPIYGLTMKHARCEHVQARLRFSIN

[5] = target: Cytochrome P450 2C19 (Homo sapiens, UniProt P33261); experiment: Cytochrome panel assay with activity outcomes. Panel member name: p450-cyp2c19 Compounds with AC50 equal or less than 10 uM are considered active; format: functional; conditions: read-out: AC50
Chain of Cytochrome P450 2C19 (P33261 whole entry): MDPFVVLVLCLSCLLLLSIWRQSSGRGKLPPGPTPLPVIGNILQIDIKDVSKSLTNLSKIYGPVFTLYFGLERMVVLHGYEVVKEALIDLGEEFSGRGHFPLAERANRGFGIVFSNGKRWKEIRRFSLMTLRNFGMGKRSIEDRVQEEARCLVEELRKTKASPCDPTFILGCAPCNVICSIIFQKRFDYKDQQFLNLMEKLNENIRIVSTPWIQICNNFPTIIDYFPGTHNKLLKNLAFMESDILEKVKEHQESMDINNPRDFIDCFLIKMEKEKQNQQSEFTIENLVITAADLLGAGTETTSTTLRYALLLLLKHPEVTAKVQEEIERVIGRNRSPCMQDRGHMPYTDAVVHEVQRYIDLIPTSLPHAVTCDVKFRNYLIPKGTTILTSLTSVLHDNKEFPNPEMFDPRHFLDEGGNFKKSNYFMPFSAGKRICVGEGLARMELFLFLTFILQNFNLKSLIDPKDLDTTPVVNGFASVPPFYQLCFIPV

[6] = target: T3, Corticotropin-releasing factor receptor 2/Corticotropin-releasing factor-binding protein (Homo sapiens, UniProt P24387+Q13324); experiment: Dose Response confirmation of uHTS hits for small molecule antagonists of the CRF-binding protein and CRF-R2 receptor complex.; format: functional; conditions: read-out: IC50_Mean
T3 sequence (Q13324 whole entry): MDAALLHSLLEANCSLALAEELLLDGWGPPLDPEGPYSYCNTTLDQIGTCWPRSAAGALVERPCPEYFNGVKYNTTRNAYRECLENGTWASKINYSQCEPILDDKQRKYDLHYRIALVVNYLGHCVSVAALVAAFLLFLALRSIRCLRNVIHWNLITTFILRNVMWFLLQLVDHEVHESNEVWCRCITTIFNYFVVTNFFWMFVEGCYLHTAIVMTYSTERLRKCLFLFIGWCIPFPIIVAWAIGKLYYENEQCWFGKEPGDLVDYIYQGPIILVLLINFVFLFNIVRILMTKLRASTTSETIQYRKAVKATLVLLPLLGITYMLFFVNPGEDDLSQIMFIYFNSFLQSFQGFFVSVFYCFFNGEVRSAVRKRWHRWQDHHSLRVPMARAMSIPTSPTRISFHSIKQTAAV
T3 sequence (P24387 whole entry): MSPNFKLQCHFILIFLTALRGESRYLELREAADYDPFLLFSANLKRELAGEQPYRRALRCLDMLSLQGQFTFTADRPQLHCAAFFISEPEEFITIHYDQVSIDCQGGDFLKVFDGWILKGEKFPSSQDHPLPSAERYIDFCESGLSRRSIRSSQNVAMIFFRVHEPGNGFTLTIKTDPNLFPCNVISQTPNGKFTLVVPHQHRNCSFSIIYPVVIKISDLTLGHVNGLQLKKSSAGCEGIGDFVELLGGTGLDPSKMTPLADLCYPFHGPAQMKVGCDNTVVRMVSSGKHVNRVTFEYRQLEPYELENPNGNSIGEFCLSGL

[7] = target: T3, Corticotropin-releasing factor receptor 2/Corticotropin-releasing factor-binding protein; experiment: activators of CRF receptor 2 with binding protein – uHTS hits, confirmation (AID 602473); format: functional; conditions: read-out: EC50_Mean
[8] = Luminescence Cell-Based Dose Response HTS to Identify Inhibitors of 5'UTR Stem-Loop Driven Prion Protein mRNA Translation in H4 Neuroglioblastoma Cells. [Related pubchem assays: 1827 (Project Summary), 1813 (Primary HTS)]; format: functional
[9] = system: INS1; experiment: INS-1E survival protection against cytokine death – cell-based, luminescence, retest, dose response (AID 449756); format: functional; conditions: Rattus norvegicus;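 further: cell death triggered by IL-1 beta plus TNF-alpha plus IFN-gamma mixture; protective hits raise ATP signal compared with cytokine alone wells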
[10] = luciferase reporter signal suppression in cells – H4 neuroglioma cells, luminescence, dose response (AID 1990); format: functional, cell-based
[11] = alpha-synuclein stem-loop luciferase translation blockers – H4 neuroglioma cells, luminescence, confirmation (AID 1988); format: functional, cell-based

Chain of Cytochrome P450 3A4 (P08684 whole entry): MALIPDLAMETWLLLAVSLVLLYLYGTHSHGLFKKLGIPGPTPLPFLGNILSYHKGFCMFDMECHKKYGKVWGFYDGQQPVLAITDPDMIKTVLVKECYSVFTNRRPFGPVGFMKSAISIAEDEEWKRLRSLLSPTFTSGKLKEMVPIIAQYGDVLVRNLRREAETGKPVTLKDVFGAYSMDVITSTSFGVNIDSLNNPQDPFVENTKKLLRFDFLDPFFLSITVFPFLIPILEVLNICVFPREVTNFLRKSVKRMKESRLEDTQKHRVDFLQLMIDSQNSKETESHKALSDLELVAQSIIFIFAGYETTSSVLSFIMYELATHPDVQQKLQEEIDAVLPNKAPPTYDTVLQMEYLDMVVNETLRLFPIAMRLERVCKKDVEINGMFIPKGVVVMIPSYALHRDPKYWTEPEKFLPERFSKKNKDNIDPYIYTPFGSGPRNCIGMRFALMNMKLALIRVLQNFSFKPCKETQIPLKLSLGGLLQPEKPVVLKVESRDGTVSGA

CCCSc1nnc2n(N)c(=O)c3ccccc3n12
AC50 [1]: 28.2 µM (inconclusive)

CCC1CCC2(CC1)SCC(=O)N2c1ccccc1 (centres undefined)
EC50 [2]: > 260 µM (inactive)

COc1ccc(C2Nc3ccccc3C(=O)N2NS(=O)(=O)c2ccc(C)cc2)cc1 (centres undefined)
EC50 [2]: > 260 µM (inactive)

COc1ccc(N2CCN(C(=O)CSc3nnc4c5cc(C)ccc5n(C)c4n3)CC2)cc1
AC50 [3]: 2.51 µM (inconclusive)
AC50 [1]: 1.12 µM (inconclusive)
AC50 [4]: 5.62 µM (inconclusive)

CCCn1nc(NC(=O)CC(C)C)c2cc3ccccc3nc21
AC50 [1]: 3.16 µM (inconclusive)
AC50 [5]: 7.94 µM (inconclusive)

COc1ccc(-n2ncc(C(C)NS(=O)(=O)c3cc(C)sc3C)c2C)cc1 (centres undefined)
IC50 [6]: > 47.1 µM (inactive)
EC50 [7]: > 53 µM (inactive)

O=C(NC(=S)NCCc1ccccn1)c1ccco1
IC50 [6]: > 47.1 µM (inactive)
EC50 [7]: > 53 µM (inactive)

COc1ccccc1CC(=O)O/N=C(\N)c1cccc([N+](=O)[O-])c1
AC50 [3]: 22.4 µM (inconclusive)
AC50 [1]: 31.6 µM (inconclusive)
AC50 [5]: 20 µM (inconclusive)
AC50 [4]: 25.1 µM (inconclusive)

COCCn1c(=O)c(-c2ccc(Cl)cc2)nc2cnc(Oc3ccccc3)nc21
AC50 [1]: 25.1 µM (inconclusive)
AC50 [5]: 39.8 µM (inconclusive)

CC(C)(C)CC(C)(C)c1ccc(OCOCCOCCO)c(Cc2cc(C(C)(C)CC(C)(C)C)cc(Cc3cc(C(C)(C)CC(C)(C)C)ccc3OCOCCOCCO)c2OCOCCOCCO)c1
AC50 [1]: 12.6 µM (inconclusive)

Cn1c(C(=O)NCCc2ccccc2)cc(=O)n(C)c1=O
IC50 [6]: > 47.1 µM (inactive)
EC50 [7]: > 53 µM (inactive)

COc1ccc(NC(=O)Nc2ccc3c(c2)OCO3)c(C)c1
IC50 [6]: > 47.1 µM (inactive)
EC50 [7]: > 53 µM (inactive)

C=CCN1C(=O)C(Cc2ccc(OCC)cc2)S/C1=N/c1ccc(C(=O)O)cc1 (centres undefined)
EC50 [2]: > 260 µM (inactive)

Cc1cc(O)c(C2(O)C(=O)Nc3cc(Br)ccc32)cc1C (centres undefined)
IC50 [6]: > 47.1 µM (inactive)
EC50 [7]: > 53 µM (inactive)

Cc1ccc(N2C(=O)c3sc4nnc(C)c(=O)n4c3C2=O)cc1
IC50 [6]: > 47.1 µM (inactive)
EC50 [7]: > 53 µM (inactive)

N=c1sc2ccccc2n1CC[S-].c1ccc2c(c1)sc1[n+]2CCS1
AC50 [3]: 1.58 µM (inconclusive)
AC50 [1]: 3.16 µM (inconclusive)

CCN(CCCNC(=O)COc1cc(=O)n(C)c2ccccc12)c1cccc(C)c1
EC50 [2]: > 260 µM (inactive)

O=C(O)CCn1[nH]c(=O)ccc1=O
EC50 [2]: > 260 µM (inactive)

Cc1cc(C)nc(OC(=O)c2ccc(Cl)cc2Cl)n1
EC50 [8]: > 120 µM (not active)
AC50 [9]: 84.3 µM (active)
EC50 [10]: 11.4 µM (active)
EC50 [11]: 10.9 µM (active)

CCCCCCCC/C=C\CCCCCCCC(N)=O [OLEAMIDE]
AC50 [1]: 50.1 µM (inconclusive)
AC50 [5]: 31.6 µM (inconclusive)

N=c1c2c(ncn1CCCO)Oc1ccc3ccccc3c1C2c1ccccc1 (centres undefined)
AC50 [9]: 24.4 µM (active)
